Reference: article PMC7691360, “Synthesis of novel cytotoxic tetracyclic acridone derivatives and study of their molecular docking, ADMET, QSAR, bioactivity and protein binding properties” (Scientific Reports, 2020)

Legend:
HT29 cells = test: MTT cytotoxicity assay against HT29; format: cell-based; conditions: Homo sapiens, 48 h, read-out: Percentage of inhibition against treated concentrations; for activity at 1 µM: HT-29, HT29, 1 µM; for activity at 5 µM: HT-29, HT29, 5 µM; for activity at 10 µM: HT-29, HT29, 10 µM; for activity at 25 µM: HT-29, HT29, 25 µM; for activity at 50 µM: HT-29, HT29, 50 µM
Protocol: (§1) Anticancer activity of 7a–s has been evaluated by MTT [3-(4,5-dimethylthiazol-2-yl)-2,5-diphenyl-tetrazolium bromide] assay and the cell lines HT29 (ATCC: HTB-38), MDA-MB-231 (ATCC: HTB-26), HEK293T (ATCC: CRL-3216) were procured from American type cell culture collection (ATCC), Manassas, USA and other chemicals were procured from Sigma-Aldrich. Then absorbance (used as a measure of cell proliferation) was measured at 570 nm with a kinetic micro-plate reader (BioTek, Winooski, Vermont).
(§2) Having synthesized a series of the title compounds, all of them were screened for their in vitro anticancer profiles against a panel of human colorectal adenocarcinoma (HT29), human breast adenocarcinoma (MDA-MB-231) and mutated Human embryonic kidney 293 (HEK293T) cancer cell lines by using MTT colourmetric assay as per Johan van Meerloo protocol. The three cell lines were cultured in […] medium and supplemented with 10% FBS followed by 100 units/mL penicillin/ streptomycin and were cultured at 37 °C in 5% CO2. Cell proliferation of the growing cells was measured in terms of logarithmic standards. Analytically, all the cultured cells were plated onto 96 well plates at a starting density of 10^5 cells. Then all the cells were treated with title compounds 7a–s for a period of 48 h with different concentrations. After this incubation cell proliferation inhibition was determined by MTT assay and all the experiments were conducted in triplicates and readings were presented as mean ± SD and provided in Tables 1, 2 and 3.

MDA-MB-231 cells = test: MTT cytotoxicity assay against MDA-MB-231; format: cell-based; conditions: Homo sapiens, 48 h, read-out: Percentage of inhibition against treated concentrations; for activity at 1 µM: MDAMB231, 1 µM; for activity at 5 µM: MDAMB231, 5 µM; for activity at 10 µM: MDAMB231, 10 µM; for activity at 25 µM: MDAMB231, 25 µM; for activity at 50 µM: MDAMB231, 50 µM
Protocol: as §1, §2

HEK293T cells = test: MTT cytotoxicity assay against HEK293T; format: cell-based; conditions: Homo sapiens, HEK-293T, 48 h, read-out: Percentage of inhibition against treated concentrations
Protocol: as §1, §2

Row | melting point [°C] | SMILES | activity at 1 µM (HT29 cells) [%] | activity at 5 µM (HT29 cells) [%] | activity at 10 µM (HT29 cells) [%] | activity at 25 µM (HT29 cells) [%] | activity at 50 µM (HT29 cells) [%] | activity at 1 µM (MDA-MB-231 cells) [%] | activity at 5 µM (MDA-MB-231 cells) [%] | activity at 10 µM (MDA-MB-231 cells) [%] | activity at 25 µM (MDA-MB-231 cells) [%] | activity at 50 µM (MDA-MB-231 cells) [%] | activity at 1 µM (HEK293T cells) [%] | activity at 5 µM (HEK293T cells) [%] | activity at 10 µM (HEK293T cells) [%] | activity at 25 µM (HEK293T cells) [%] | activity at 50 µM (HEK293T cells) [%]
1 | 232 to 234 | O=C(c1ccccn1)N1CCn2c3ccccc3c(=O)c3cccc1c32 [Compound 7a, 3-Picolinoyl-2,3-dihydropyrazino[3,2,1-de]acridin-7(1H)-one] | 78.91 ± 0.42 | 57.61 ± 0.39 | 44.1 ± 0.86 | 14.9 ± 0.36 | 8.77 ± 0.72 | 84.42 ± 0.35 | 55.22 ± 0.46 | 44.52 ± 0.29 | 25 ± 0.27 | 14.7 ± 0.42 | 99.93 ± 0.11 | 98.52 ± 0.96 | 97.63 ± 0.45 | 96.81 ± 0.2 | 57 ± 0.81
2 | 231 to 233 | O=C(c1cccnc1)N1CCn2c3ccccc3c(=O)c3cccc1c32 [Compound 7b, 3-Nicotinoyl-2,3-dihydropyrazino[3,2,1-de]acridin-7(1H)-one] | 89.93 ± 0.66 | 65.63 ± 0.27 | 52.5 ± 0.82 | 38.1 ± 0.42 | 19.4 ± 0.35 | 86.22 ± 0.83 | 56.42 ± 0.47 | 46.91 ± 0.44 | 32.3 ± 0.16 | 19 ± 0.62 | 98.93 ± 0.66 | 97.41 ± 0.57 | 96.44 ± 0.46 | 95.2 ± 0.29 | 55.1 ± 0.88
3 | 233 to 235 | O=C(c1ccncc1)N1CCn2c3ccccc3c(=O)c3cccc1c32 [Compound 7c, 3-Isonicotinoyl-2,3 dihydropyrazino[3,2,1-de]acridin-7(1H)-one] | 90.02 ± 0.31 | 66.2 ± 0.83 | 52.9 ± 0.84 | 40.37 ± 0.15 | 20.79 ± 0.08 | 86.8 ± 0.96 | 57.39 ± 0.32 | 47.2 ± 0.93 | 38.69 ± 0.28 | 22.8 ± 0.89 | 96.63 ± 0.53 | 94.28 ± 0.53 | 90.18 ± 0.38 | 83.28 ± 0.21 | 49.08 ± 0.23
4 | 246 to 248 | Cc1cccc(C(=O)N2CCn3c4ccccc4c(=O)c4cccc2c43)n1 [Compound 7e, 3-(6-Methylpicolinoyl)-2,3-dihydropyrazino[3,2,1-de]acridin-7(1H)-one] | 84.9 ± 0.94 | 60.82 ± 0.33 | 49.1 ± 0.85 | 27.6 ± 0.35 | 16.3 ± 0.55 | 82.18 ± 0.79 | 52.9 ± 0.75 | 42.1 ± 0.52 | 15.83 ± 0.14 | 11.3 ± 0.22 | 98.73 ± 0.97 | 97.08 ± 0.25 | 95.2 ± 0.76 | 91.72 ± 0.35 | 54 ± 0.77
5 | 252 to 254 | Cc1ccc(C(=O)N2CCn3c4ccccc4c(=O)c4cccc2c43)nc1 [Compound 7f, 3-(5-Methylpicolinoyl)-2,3-dihydropyrazino[3,2,1-de]acridin-7(1H)-one] | 86.92 ± 0.24 | 61.4 ± 0.68 | 49.24 ± 0.05 | 29.09 ± 0.18 | 17.1 ± 0.65 | 83.22 ± 0.21 | 54.18 ± 0.35 | 43.7 ± 0.54 | 23.3 ± 0.26 | 13.8 ± 0.73 | 92.96 ± 0.52 | 90.92 ± 0.52 | 88.07 ± 0.68 | 80.53 ± 0.41 | 47.46 ± 0.38
6 | 221 to 223 | Cc1cccnc1C(=O)N1CCn2c3ccccc3c(=O)c3cccc1c32 [Compound 7g, 3-(3-Methylpicolinoyl)-2,3-dihydropyrazino[3,2,1-de]acridin-7(1H)-one] | 79.09 ± 0.34 | 58.9 ± 0.93 | 45.1 ± 0.54 | 25.5 ± 0.44 | 10 ± 0.91 | 81.56 ± 0.48 | 52.3 ± 0.86 | 41.7 ± 0.74 | 14.6 ± 0.34 | 10.6 ± 0.28 | 95.9 ± 0.54 | 92.62 ± 0.31 | 88.84 ± 0.07 | 81.24 ± 0.32 | 48.2 ± 0.86
7 | 239 to 241 | O=c1c2ccccc2n2c3c(cccc13)N(c1nccs1)CC2 [Compound 7j, 3-(Thiazol-2-yl)-2,3-dihydropyrazino[3,2,1-de]acridin-7(1H)-one] | 89.55 ± 0.11 | 64.84 ± 0.45 | 51.5 ± 0.94 | 31.05 ± 0.19 | 17.4 ± 0.87 | 87.9 ± 0.95 | 58.4 ± 0.88 | 48.2 ± 0.88 | 39.53 ± 0.23 | 23.3 ± 0.98 | 96.71 ± 0.63 | 94.47 ± 0.83 | 91.28 ± 0.48 | 84.17 ± 0.37 | 49.6 ± 0.38
8 | 265 to 267 | O=C(c1ccc(O)cc1)N1CCn2c3ccccc3c(=O)c3cccc1c32 [Compound 7k, 3-(4-hydroxybenzoyl)-2,3-dihydro-1H,7H-pyrazino[3,2,1-de]acridin-7-one] | 96.6 ± 0.99 | 81.84 ± 0.11 | 74.68 ± 0.64 | 66.23 ± 0.18 | 28 ± 0.96 | 97.31 ± 0.74 | 88.16 ± 0.43 | 80.54 ± 0.54 | 70.48 ± 0.17 | 41.5 ± 0.91 | 99.55 ± 0.46 | 97.77 ± 0.09 | 96.79 ± 0.17 | 95.46 ± 0.43 | 56.26 ± 0.12
9 | 253 to 255 | O=C(c1ccccc1)N1CCn2c3ccccc3c(=O)c3cccc1c32 [Compound 7l, 3-Benzoyl-2,3-dihydro-1H,7H-pyrazino[3,2,1-de]acridin-7-one] | 97.17 ± 0.22 | 83.2 ± 0.99 | 76.71 ± 0.06 | 68.88 ± 0.47 | 30.6 ± 0.87 | 95.13 ± 0.85 | 82.38 ± 0.27 | 75.3 ± 0.81 | 65.86 ± 0.47 | 38.8 ± 0.88 | 96.44 ± 0.31 | 94.13 ± 0.23 | 89.65 ± 0.12 | 82.83 ± 0.54 | 48.8 ± 0.67
10 | 240 to 242 | O=C(c1ccc(C(F)(F)F)cc1)N1CCn2c3ccccc3c(=O)c3cccc1c32 [Compound 7o, 3-(4-(Trifluoromethyl)benzoyl)-2,3-dihydro-1H,7H-pyrazino[3,2,1-de]acridin-7-one] | 93.92 ± 0.39 | 77.8 ± 0.91 | 69.54 ± 0.24 | 58.23 ± 0.26 | 24.3 ± 0.76 | 94.97 ± 0.73 | 76.63 ± 0.13 | 70 ± 0.93 | 61.26 ± 0.29 | 36.1 ± 0.64 | 95.33 ± 0.63 | 91.17 ± 0.26 | 88.65 ± 0.11 | 80.68 ± 0.76 | 48.2 ± 0.79
11 |  | O=c1c2ccccc2n2c3c(cccc13)N(c1cccnc1)CC2 [Compound 7s, 3-(Pyridin-3-yl)-2,3-dihydropyrazino[3,2,1-de]acridin-7(1H)-one] | 84.78 ± 0.12 | 60.38 ± 0.24 | 48.4 ± 0.57 | 27.5 ± 0.35 | 15.2 ± 0.61 | 88.63 ± 0.67 | 59.87 ± 0.26 | 49.22 ± 0.24 | 43.07 ± 0.28 | 25.4 ± 0.46 | 93.26 ± 0.88 | 91.78 ± 0.53 | 88.09 ± 0.54 | 80.57 ± 0.26 | 47.8 ± 0.79
12 |  | COc1cccc2c1C(=O)c1c(O)c3c(c(O)c1C2=O)C[C@@](O)(C(=O)CO)C[C@@H]3O[C@H]1C[C@H](N)[C@H](O)[C@H](C)O1 [Doxorubicin, reference compound] | 97.09 ± 0.79 | 90.76 ± 0.83 | 82.92 ± 0.54 | 72.6 ± 0.83 | 42.8 ± 0.86 | 93.65 ± 0.42 | 87.54 ± 0.67 | 79.98 ± 0.67 | 69.98 ± 0.47 | 41.2 ± 0.79 | 96.1 ± 0.83 | 95.66 ± 0.42 | 92.44 ± 0.56 | 85.27 ± 0.78 | 50.25 ± 0.14
